Test results taken from patent US20060014726A1, “Derivatives of cyclic1, 3- propanediol phosphate and their action in differentiation therapy” (priority 2002, published 2006).

Tests used:
[1] = test system: progesterone receptor (PR) in MCF-7 cells; assay: Western blot analysis of PR level in MCF-7 cells; assay type: cell-based, human; conditions: MCF-7 cells, from 10 μM upwards
Method: In an analogous manner, a set of experiments was preformed with MCF-7 cells for determining the level of PR upon incubation with varying concentrations of 1,3-cPP for a period of up to 11 days. Similar to the augmentation observed for ER-α, an increase of up to 2.8 and 2.2 fold expression of the wild type PR (MW 98,000), was observed from 10 μM 1,3-cPP and upwards on days 8 and 11, respecively (FIGS. 3A-D).
Breast Cancer Cells. The human breast cancer MCF-7 cell line were obtained from Prof. Hadassa Degani, of Weizmann Institute of Science, Rehovot, Israel. The cells were grown as monolayers in high glucose DMEM supplemented with 6% fetal calf serum and combined antibiotics. Human breast cancer T47D cells, clones 8 (ER^loPR^lo) and 11 (ER^+PR^+) were obtained from Prof Iafa Keydar, Tel-Aviv university and were grown in DMEM supplemented with 10% fetakl calf serum antibiotics. K562 erythroleukemia cells were obtained from Dr. Alfa Peled of Weizmann Institute of Science, Rehovot, Israel. These cells were grown in RPMI 1640 containing 10% fetal calf serum and antibiotics. All lines were grown at 37° C. in the presence of 5% CO2. The absence of Mycoplasma contamination was monitored by a Mycotrim TC test (Irvine Scientific, Santa Ana, Calif.) carried out once every 3 months.
(§1) For ER-α protein analysis, MCF-7 and T47D cells were cultured in 60×15 mm petri dishes. From the second day of culture onward, the cells were treated with various concentrations of 1,3cPP for up to 14 days. At the end of the incubation period, the medium was aspirated and the cells were washed 3 times with cold (4° C.) PBS. […] The protein concentration in each sample (1.5-4 mg/ml) was determined using the Coomassie Protein Assay (Pierce, Rockford, Ill.) according to the manufacturer's instructions. […] Bound antibodies were detected by horseradish peroxidase-conjugated goat anti-rabbit IgG, (Transduction Laboratories, Lexington, Ky. using the ECL detection method. Band densities were quantified by densitometry (Biorad model GS-690 Imaging densitometer) using Molecular Analyst software.

[2] = test system: T47D human breast cancer cells (clone 11); assay: Proliferation assay ([3H]thymidine uptake); assay type: cell-based; conditions: T47D clone 11, 50 μM
Method: In order to validate such an observation, T47D cells were incubated with varying concentration of 1,3-cPP in the range of 1-50 μM in a standard 5 day [3H]thymidine uptake assay.
T47D cells (clone 11;ER^+PR^+) were plated in 96 well plates in sets of 6, each containing 8×10^4 cells in a final volume of 200 μl per well. 1,3-cPP was added to the cultures to form a final concentration of 1-50 μM. Plates were incubated at 37° C. over the course of 5 days, where on each day, one plate was pulsed with [^3H]thymidine (5.7 Ci/mmol, Sigma, St. Louis, Mo.) overnight for the last 16 hours of the assay, and then frozen. The plates were harvested (Packard micromate 196 harvester, Merriden, Conn.) and radioactivity was scored on a 96 well plate reader (Packard 96, merriden, Conn.).

[3] = test system: MCF-7 cells; assay: Anti-tumor assay, MCF-7 tumors in athymic CD-1 mice; assay type: in vivo
Method: To test this possibility, we followed the procedure of Kurokawa et al. Female athymic outbred CD-1 mice were implanted with a slow release estradiol tablet and injected intra-fat-pad (i.f.p.) in the lower right abdomen 3×10^6 viable MCF-7 cells (see Materials and Methods). Twelve days later, when the tumors became palpable, mice were randomly allocated into two groups, each with six mice. The control group was injected with PBS i.p. and the treatment group was injected with 0.5 mg 1,3cPP dissolved in PBS i.p. in the lower left abdomen on day 1,3,6, and 8. Tumor size was then measured 2-3 times a week. In the control group, the tumors grew continuously and reached an average size of >1250 mm^3. The origin of the large variation in tumor size was due to one mouse with a relatively small tumor in this group.
Female athymic outbred CD-1 mice 12 weeks of age were obtained from the animal breeding center of our Institute. Animals were maintained and treated according to “Principles of laboratory animal care”, (NIH publication no. 85-23) under the supervision of the Council for Experiments on animals, of our Institute. Mice were anesthetized and implanted subcutaneously with a 0.25 mg, 21-day release 17β-estradiol pellet (Innovative Research of America, Sarasota, Fla.) in the dorsal space and injected intra-fat-pad (i.f.p.) in the lower right abdomen with 3×10^6 MCF-7 cells. Twelve days later, when the tumors became palpable, mice were randomly allocated into two groups, each with 6 mice. The control group was injected with PBS and the treatment group was injected with 0.5 mg 1,3cPP in PBS i.p. in the lower left abdomen on day 1,3,6, and 8. Tumor diameters were serially measured with calipers assuming a hemiellipsoid shape, where volume=[…]×(length/2)×(width/2)×(thickness/2).

[4] = test system: ER-α in T47D cells; assay: Western blot analysis of ER-α level in T47D cells; assay type: cell-based, human; conditions: 15 μM
Method: Turning to FIG. 1 there are shown Western blot analyses showing the effect of 1,3cPP on the expression level of ER-α. In the ER-α assay, MCF-7 cells were incubated with 1-100 μM 1,3cPP for up to 14 days. The analysis indicates a relative increase in the level of wild type ER-α receptor (MW 70,000) with either an increase in 1,3cPP concentration or time of incubation. On days 6 and 14, a nearly 2-fold and 3-fold increase were observed, respectively (FIGS. 1A, C, D, F). […] This band could be related to one of deleted exons D3-4 (MW 49,000), D4 (MW 54,000), or D7 (MW 51,000) ER-α variants.
Breast Cancer Cells. The human breast cancer MCF-7 cell line were obtained from Prof. […] The absence of Mycoplasma contamination was monitored by a Mycotrim TC test (Irvine Scientific, Santa Ana, Calif.) carried out once every 3 months.
as §1, with “dishes.” for “dishes. From the second day of culture onward, the cells were treated with various concentrations of 1,3cPP for up to 14 days. At the end of the incubation period, the medium was aspirated and the cells were washed 3 times with cold (4° C.) PBS.”

[5] = 0.5 mg i.p. on day 1,3,6 and 8, athymic CD-1 mice

For `O=P1(O)OCCCO1` [1,3-cPP, 1,3-cyclic propanediol phosphate], the “increase in expression of the wild type PR (MW 98,000)” value ([1]; day 8) was “up to 2.8 fold”, the “increase in expression of the wild type PR (MW 98,000)” value ([1]; day 11) was ≤ 2.2 fold and the “proliferation ([3H]thymidine uptake), persistence of effect” value ([2]; after the third day of 5 day assay) was “effect was lost after the third day”. The “proliferation ([3H]thymidine uptake) compared to control cultures” value ([2]; first 3 days of incubation, P values 0.0370, 0.0192 and 0.0238 on days 1-3) was “significantly inhibited proliferation”, the “changes in appearance, body weight or behavior upon injection” value [3, 5] was “no changes in appearance, body weight or behavior” and the “toxic effects during the course of the experiment” value [3, 5] was “No observable toxic effects”. For the same compound, the “tumor size, treatment versus control group” value ([3]; 0.5 mg i.p. on day 1,3,6 and 8, day 36 (P=0.032) and day 43 (P=0.032), MCF-7 tumors in athymic CD-1 mice) was “significant difference”, the “level of wild type ER-α receptor” value ([4]; T47D (ER+PR+) clone 11 cells, 6 days) was “sharp increase” and the “expression of variant ER-α (MW≈40,000)” value ([4]; T47D clone 8 (ERlo PRlo), 3 days incubation) was “sharp increase”.
